# Reference: US12605446B2, “PSMA-targeted immunotherapies for cancers” (THE METHODIST HOSPITAL, priority 2020, dated 2026)
# Positions count from the first letter of the chain named.
# B1: #1377: anti-PSMA mouse monoclonal antibody of hybridoma #1377; VH SEQ ID NO: 16, VL SEQ ID NO: 18 (antibody, V domains shown)
# VH: VQLQQPGAALVRPGASVRLSCKASGYSFTYYWMNWVMQRPGQGLEWIGMIHPSDSETRLSQKFRDKATLTVDKSSSTVYMQLNSPTSDDSAVYYCARDGNFPYYALDYWGQGTSVTVSS
# VL: DVVLTQAPLSLPVSLGDQASISCRSSQSLEYSNGNTYLHWYLQKPGQSPELLIYTVSNRFSGVPDRFSGSGSGTDFTLKIHRVEAEDLGVYFCSQSTHVPTFGGGTKLEIKR
# B2: #1207: anti-PSMA mouse monoclonal antibody of hybridoma #1207; VH SEQ ID NO: 28, VL SEQ ID NO: 30 (antibody, V domains shown)
# VH: VKLQQSGPGLVKPSQSLSLTCAVTGYSITSDYAWNWIRKFPGNKLEWMGYISYSGRTTYNPSLESRISITRDTSKNQFFLQLNSVTTEDTATYYCARCYYGSSSRWYGMDYWGRGTSVAVSS
# VL: IVLTQSPAIMSASPGVKVTMTCRASSSVDSSYLHWYQQKSGASPQVWIYSTSNLASGVPARFSGSGSGTSYSLTISSVEAEDAATYYCQQYSGYPLTFGGGTKLEIKR
# B3: #1366: anti-PSMA mouse monoclonal antibody of hybridoma #1366; VH SEQ ID NO: 20, VL SEQ ID NO: 22 (antibody, V domains shown)
# VH: VKLQESGPGLVAPSQSLSITCTVSGFSLTDYGVSWIRQPPGKGLEWLGVIWSDGNTYYNSPLKSRLSINKDNSKSQVFLKMNSLQTDDSAMYYCARHKVYTMDYWGQGTSVTVSS
# VL: B2 VL with I1T, V16E, D29S, G41S, Q45K, V46L, S50R, V78L, G100A, I106L
# B4: #1352: anti-PSMA mouse monoclonal antibody of hybridoma #1352; VH SEQ ID NO: 24, VL SEQ ID NO: 26 (antibody, V domains shown)
# VH: VKLQQSGPELEKPGASVKISCKASGYSFTGYNVNWVKQSNGKSLEWIGNIDPYHGGTTYNQKFEAKATLTVDKSSSTAYMQLKSLTSEDSAVYYCARSSRFDYWGQGTTLTVSS
# VL: DIVMTQSHKFMSTSVGDRVNITCKASQDVGTAVAWYQQKPGQSPKFLIYWASTRHTGVPDRFTGSGSGTDFTLTISNVQSEDLADYFCHQYTSYPFTFGSGTKLEMKR
# B5: #219: anti-PSMA mouse monoclonal antibody of hybridoma #219; VH SEQ ID NO: 12, VL SEQ ID NO: 14 (antibody, V domains shown)
# VH: B4 VH with K2Q, I19M, K37R, S39N, Y53L, E64K, K73R, M80L, S84N
# VL: B4 VL with F46L, Y91F, K103S
# What was measured:
# [1] = test system: PSMA expression in LNCaP cells; experiment: PSMA expression after antiandrogen or androgen treatment, LNCaP; assay type: cell-based
# [2] = test system: PSMA expression in VCaP cells; experiment: PSMA expression after antiandrogen or androgen treatment, VCaP; assay type: cell-based
# [3] = test system: PSMA-positive LNCaP cells; experiment: Flow cytometric binding of anti-PSMA mAbs to prostate cancer cells; details: mixed PC3 and LNCaP cells, 20 μg antibody, FITC anti-mouse IgG secondary antibody
# Experimental: PC3 cells and […] cells are mixed and incubated with 20 μg of J591, our home-made mAb #1352, or […] as a negative control. Next, the cells were incubated with FITC anti-mouse IgG secondary antibody (Biolegend, cat #406001), followed by flow cytometric analysis.
# (A2). Development of anti-PSMA mAbs and construction of PSMA-CARs. The process of PSMA-CAR T cell therapy development is shown in the flowchart (FIG. 13A). PSMA extracellular domain was produced in baculovirus-insect cell expression system as reported. Purified recombinant PSMA protein was used to immunized BALB/c mice. Out of 38 ELISA-positive hybridomas, seven were confirmed by flow cytometry for their antibody-specific binding to PSMA-positive LNCaP and VCaP cells, but not to PSMA-negative PC3 cells.
# [4] = test system: PSMA-positive prostate cancer cell lines LNCaP and VCaP; experiment: Murine FCγRIII ADCC reporter bioassay; assay type: cell-based; details: in vitro ADCC assay
molecule,measurement,setting,value
CNC(=O)c1ccc(N2C(=S)N(c3ccc(C#N)c(C(F)(F)F)c3)C(=O)C2(C)C)cc1F [enzalutamide],PSMA mRNA levels,"[1]; 10 μM enzalutamide, 48 hours",increased
same,PSMA protein levels,"[1]; Enzalutamide, 72 hrs",increased
same,PSMA mRNA levels,"[2]; 10 μM enzalutamide, 48 hours",increased
same,PSMA protein levels,"[2]; Enzalutamide, 72 hrs",increased
C[C@]1(O)CC[C@H]2[C@@H]3CCC4=CC(=O)CCC4=C3C=C[C@@]21C [R1881],PSMA mRNA levels,[1]; 10 nM R1881,reduced
same,PSMA mRNA levels,[2]; 10 nM R1881,reduced
B1,binding to LNCaP cells by flow cytometry,[3],bind to LNCaP cells with high affinity
B2,binding to LNCaP cells by flow cytometry,[3],bind to LNCaP cells with high affinity
B3,binding to LNCaP cells by flow cytometry,[3],bind to LNCaP cells with high affinity
B4,binding to LNCaP cells by flow cytometry,[3],detected as the FITC positive cells
same,induction of ADCC activity,[4],most potent
B5,binding to LNCaP cells by flow cytometry,[3],bind to LNCaP cells with high affinity
